pEC50: −log10 of the molar value.
Key:
[1] = system: PAF-induced platelet aggregation; experiment: Inhibitory effect on PAF-induced platelet aggregation; format: cell-based; conditions: rabbit PRP; PAF 1×10^-8 M, test concentration not readable
Description: In the same manner as above, a platelet rich plasma (PRP) and a platelet poor plasma (PPP) were prepared for performing the following experiment.
(§1) PRP was diluted with PPP to give a sample containing platelets at 300,000/mm^3.
10 μl of a test solution was added to 180 μl of PRP. To the resulting mixture was added 10 μl of a solution of a commercially available PAF (No.P-4904, available from Sigma Corp.) to give a concentration of 1×10^-8 M, and aggregation was observed. For the preparation of the test solution and the PAF solution, a saline solution containing 0.25% bovine serum albumin was employed.
The effect of the test sample for suppressing aggregation was obtained in terms of a degree of suppression of the maximum aggregation in the control PRP caused by the PAF.

Male Wistar rats = experiment: Blood pressure reducing action: intravenous injection (MABP50); format: in vivo, rat; conditions: anesthetized male Wistar rats, injection in saline with 0.25% bovine serum albumin, from dose-response curve; for ED (50 mmHg): Rattus norvegicus, iv, read-out: MABP50 (dose required for reducing a mean blood pressure by 50 mmHg)
Description: Male Wistar rats (mean body weight: 420 g) were anesthetized by intraperitoneal injection of 50 mg/kg of pentobarbital sodium, and their blood pressures were measured at left femoral artery. Subsequently, a compound to be tested was dissolved in a saline solution containing 0.25% bovine serum albumin and injected into the rat through the right femoral artery.
A dose-response curve was prepared from the obtained values for each of the following compounds of the present invention to determine a dose required for reducing a mean blood pressure by 50 mmHg (MABP50).

platelet = experiment: Platelet aggregation action in platelet rich plasma; format: cell-based; conditions: rabbit PRP, 300,000 platelets/mm^3, final concentration 2×10^-10 to 2×10^-4 M, unit inferred
Description: A male Japanese white rabbit was anesthetized by pentobarbital, and a blood was collected in aqueous 3.13% sodium citrate solution at its carotid. The blood containing 1/10 volume ratio of the sodium citrate solution was treated in a conventional manner to give a platelet rich plasma (PRP) and a platelet poor plasma (PPP) for performing the following experiment.
as §1
Aggregation of platelet was determined by means of Platelet Aggregation Tracer PAT-4A(available from Niko Bioscience Co., Ltd., Japan). 10 μl of a test solution was added to 190 μl of PRP to give a final concentration of 2×10^-10 to 2×10^-4 M, and an aggregation curve is recorded. For the preparation of the test solution, a saline solution containing 0.25% bovine serum albumin.
According to the aggregation curve obtained for each of the following compound of the present invention, following EC50 value was obtained.

[2] = system: Male spontaneously hypertensive rats; experiment: Blood pressure reducing action: oral administration; format: in vivo, rat
Description: Male spontaneously hypertensive rats (average body weight: 359 g) were anesthetized with ether. Blood pressure was measured for each rat through cannulation at its left femoral artery. A compound to be tested was dissolved in a distilled water and the resulting aqueous solution was administered orally.

[3] = Oryctolagus cuniculus, Platelet

Compound	pEC50 (platelet; [3])	ED (50 mmHg) (Male Wistar rats) [µg/kg]	other results
2-Acetyloxy-3-hexadecyloxypropyl 1-(1-fluorophenyl)-2-methylisoquinolinio-3-ylmethyl phosphate	–	–	degree of suppression of the maximum aggregation caused by the PAF [1]: 100%
CCCCCCCCCCCCCCCCOCC(COP(=O)([O-])OCC1CSC(c2ccccc2)[N+]1(C)C)OC(C)=O (single isomer, unassigned) [S(Product A), 2-acetyloxy-3-hexadecyloxypropyl 3,3-dimethyl-2-phenyl-1,3-thiazolidinio-4-ylmethyl phosphate]	6.17	–	MABP50 (dose required for reducing a mean blood pressure by 50 mmHg) (Male Wistar rats): 0.16 µg/kg
CCCCCCCCCCCCCCCCOCC(COP(=O)([O-])OCC1CSC(c2ccccc2)[N+]1(C)C)OC(C)=O (single isomer, unassigned) [S(Product B), 2-acetyloxy-3-hexadecyloxypropyl 3,3-dimethyl-2-phenyl-1,3-thiazolidinio-4-ylmethyl phosphate]	–	–	MABP50 (dose required for reducing a mean blood pressure by 50 mmHg) (Male Wistar rats): 0.35 µg/kg; pEC50 (platelet): 6.13
CCCCCCCCCCCCCCCCOCC(COP(=O)([O-])OC1C[N+]2(C)CCC1CC2)OC(C)=O (stereo not drawn) [A, 2-acetyloxy-3-hexadecyloxypropyl 1-methyl-1-azoniabicyclo[2,2,2]-3-octyl phosphate]	9.12	0.005	–
CCCCCCCCCCCCCCCCOCC(COP(=O)([O-])OC1CC2CCC(C1)[N+]2(C)C)OC(C)=O (stereo not drawn) [B, 2-acetyloxy-3-hexadecyloxypropyl endo-8,8-dimethyl-8-azoniabicyclo[3,2,1]-3-octyl phosphate]	8.64	0.12	–
CCCCCCCCCCCCCCCCOC(C)C(COP(=O)([O-])OC1C[N+]2(C)CCC1CC2)OC(C)=O (stereo not drawn) [C, 2-acetyloxy-3-hexadecyloxybutyl 1-methyl-1-azoniabicyclo[2,2,2]-3-octylphosphate]	8.28	0.099	Change of Blood Pressure About 30 min. after Administration ([2]; 3 mg/kg): -64.5 mmHg
CCCCCCCCCCCCCCCCOCC(COP(=O)([O-])OCC1CCCC[N+]1(C)C)OC(C)=O (stereo not drawn) [Compound E, 2-acetyloxy-3-hexadecyloxypropyl 1,1-dimethylpiperidinio-2-ylmethyl phosphate]	8.00	0.132	–
CCCCCCCCCCCCCCCCOCC(COP(=O)([O-])OCC1CCC[N+]1(C)C)OC(C)=O (stereo not drawn) [D, 2-acetyloxy-3-hexadecyloxypropyl 1,1-dimethylpyrrolidinio-2-ylmethyl phosphate]	9.30	0.024	–
CCCCCCCCCCCCCCCCOCC(COP(=O)([O-])OCC1CCC[N+](C)(C)C1)OC(C)=O (stereo not drawn) [F, 2-acetyloxy-3-hexadecyloxypropyl 1,1-dimethylpiperidinio-3-ylmethyl phosphate]	8.82	0.058	–
CCCCCCCCCCCCCCCCOCC(COP(=O)([O-])OCC1CC[N+](C)(C)CC1)OC(C)=O (stereo not drawn) [G, 2-acetyloxy-3-hexadecyloxypropyl 1,1-dimethylpiperidinio-4-ylmethyl phosphate]	7.05	0.97	–
CCCCCCCCCCCCCCCCOCC(COP(=O)([O-])OCCC1CCC[N+]1(C)C)OC(C)=O (stereo not drawn) [H, 2-acetyloxy-3-hexadecyloxypropyl 2-(1,1-dimethylpyrrolidinio-2-yl)ethylphosphate]	8.62	0.058	–
CCCCCCCCCCCCCCCCOC(C)C(COP(=O)([O-])OC(c1ccccc1)C1CCC[N+]1(C)C)OCc1ccccc1 (stereo not drawn) [I, 2-Benzyloxy-3-hexadecyloxybutyl erythro-1,1-dimethylpyrrolidinio-2-ylphenylmethyl phosphate]	–	–	degree of suppression of the maximum aggregation caused by the PAF [1]: 100%
CCCCCCCCCCCCCCCCOCC(COP(=O)([O-])OC(c1ccccc1)C1CCC[N+]1(C)C)OCc1ccccc1 (stereo not drawn) [J, 2-Benzyloxy-3-hexadecyloxypropyl erythro-1,1-dimethylpyrrolidinio-2-ylphenylmethyl phosphate]	–	–	degree of suppression of the maximum aggregation caused by the PAF [1]: 99%
CCCCCCCCCCCCCCCCOCC(COP(=O)([O-])OC(c1ccccc1)C1CCC[N+]1(C)C)OCc1ccccc1 (stereo not drawn) [K, 2-Benzyloxy-3-hexadecyloxypropyl threo-1,1-dimethylpyrrolidinio-2-ylphenylmethyl phosphate]	–	–	degree of suppression of the maximum aggregation caused by the PAF [1]: 73%
CCCCCCCCCCCCCCCCOCC(COP(=O)([O-])OCC1CCCC[N+]1(C)C)OCc1ccccc1 (stereo not drawn) [L, 2-Benzyloxy-3-hexadecyloxypropyl 1,1-dimethylpiperidinio-2-ylmethyl phosphate]	–	–	degree of suppression of the maximum aggregation caused by the PAF [1]: 55%
CCCCCCCCCCCCCCCCOCC(COP(=O)([O-])OC(c1ccccc1)C1CCC[N+]1(C)C)OC(C)=O (stereo not drawn) [M, 2-Acetyloxy-3-hexadecyloxypropyl erythro-1,1-dimethylpyrrolidinio-2-ylphenylmethyl phosphate]	–	–	degree of suppression of the maximum aggregation caused by the PAF [1]: 100%
CCCCCCCCCCCCCCCCOCC(COP(=O)([O-])OCC1Cc2ccccc2C[N+]1(C)C)OC(C)=O (stereo not drawn) [O, 2-acetyloxy-3-hexadecyloxypropyl 2,2-dimethyl-1,2,3,4-tetrahydroisoquinolinio-3-ylmethyl phosphate]	6.74	3.2	–
CCCCCCCCCCCCCCCCOCC(COP(=O)([O-])OCC1CCc2ccccc2[N+]1(C)C)OC(C)=O (stereo not drawn) [P, 2-acetyloxy-3-hexadecyloxypropyl 1,1-dimethyl-1,2,3,4-tetrahydroquinolinio-2-ylmethyl phosphate]	7.30	0.11	–
CCCCCCCCCCCCCCCCOCC(COP(=O)([O-])OCC1CSC[N+]1(C)C)OC(C)=O (stereo not drawn) [Q, 2-acetyloxy-3-hexadecyloxypropyl 3,3-dimethyl-1,3-thiazolidinio-4-ylmethyl phosphate]	9.28	0.032	–
CCCCCCCCCCCCCCCCOCC(COP(=O)([O-])OCC1=CCC[N+](C)(C)C1)OC(C)=O (stereo not drawn) [R, 2-acetyloxy-3-hexadecyloxypropyl 1,1-dimethyl-1,2,5,6-tetrahydropyridinio-3-ylmethyl phosphate]	–	0.024	–
CCCCCCCCCCCCCCCCOCC(COP(=O)([O-])OCCc1sc[n+](C)c1C)OC(C)=O (stereo not drawn) [T, 2-acetyloxy-3-hexadecyloxypropyl 3,4-dimethylthiazolio-5-ylethyl phosphate]	8.49	0.00023	Change of Blood Pressure About 30 min. after Administration ([2]; 10 mg/kg): -35.3 mmHg
CCCCCCCCCCCCCCCCOCC(COP(=O)([O-])OCCc1ccc[n+](C)c1)OC(C)=O (stereo not drawn) [U, 2-acetyloxy-3-hexadecyloxypropyl 1-methylpyridinio-3-ylethyl phosphate]	–	–	MABP50 (dose required for reducing a mean blood pressure by 50 mmHg) (Male Wistar rats): 0.195 µg/kg; pEC50 (platelet): 7.07
CCCCCCCCCCCCCCCCOC(C)C(COP(=O)([O-])OCC1=CCC[N+](C)(C)C1)OC(C)=O (stereo not drawn) [V, 2-acetyloxy-3-hexadecyloxybutyl 1,1-dimethyl-1,2,5,6-tetrahydropyridinio-3-ylmethyl phosphate]	7.11	0.64	Change of Blood Pressure About 30 min. after Administration ([2]; 3 mg/kg): -49.0 mmHg
CCCCCCCCCCCCCCCCOC(C)C(COP(=O)([O-])OCCc1sc[n+](C)c1C)OC(C)=O (stereo not drawn) [W, 2-acetyloxy-3-hexadecyloxybutyl 3,4-dimethylthiazolio-5-ylethyl phosphate]	7.14	0.067	Change of Blood Pressure About 30 min. after Administration ([2]; 1 mg/kg): -36.0 mmHg

Reference: patent US4962096A, “Heterocyclic glycerol derivatives and their use as anti-hypertensive agents” (Nippon Chemiphar Co., Ltd., priority 1987, dated 1990)
